# What was measured:
# [1] = tested on: Jurkat FADD-deficient I 2.1 cell line; assay: Cell-based screening: TNF-α-induced necroptosis in Jurkat FADD-deficient cells, MTS viability assay; parameters: species or system human
# From the text: TNF-α can induce necroptosis in Jurkat cells (human T lymphocytes) when FADD is deleted. This model was used to screen various libraries of chemical compounds for characterization of new inhibitors of cellular necroptosis. Details on this cell-based assay can be found in (Miao and Degterev, Methods Mol. Biol. 2009, 559, 79-93). The Jurkat FADD-deficient I 2.1 cell line used was purchased from ATCC and was maintained in RPMI 1640 medium (Gibco) containing Glutamax and 15% fetal calf serum (Life Technology). Necroptosis was induced by addition of 10 ng/ml of human recombinant TNF-α (Life Technology). Necrostatin-1 (Nec-1, Enzo Life Sciences) was used as model necroptosis inhibitor. Cells were maintained in 75 cm^2 flask and passed every 2 or 3 days. Chemical collections analysed were formatted in 96-well plates with 80 molecules per plates at 10 mM in 100% DMSO. For each collection plate, 2 cell plates were seeded (one necroptosis-induced with TNF-α and the other without TNF-α). Cells were seeded at 20000 cells/well, in 40 μl of medium, in a 96-well clear, flat bottom plate (CytoOne, Starlab) before treatment. Then, 40 μl of medium with or without TNF-α at 25 ng/ml were added to all wells in the corresponding plate. Immediately after TNF-α addition, 20 μl of diluted compound at 50 μM were added to the plates. Final concentration of each chemical compound was 10 μM at 0.1% DMSO. Four positives (Nec-1 at 10 μM final) and four negative (DMSO) controls were used in each plate to validate the assay. Cells were incubated at 37° C., 5% CO2 for 24 hours before performing MTS viability assay, described hereafter. Compounds were diluted before to treat cells. Liquid handling was performed using the Nimbus Microlab liquid handler (Hamilton Robotics) under microbiological safety workbench. The 10 mM compounds were diluted at 50 μM directly in cell medium.
# L929AsFas cells = assay: Anti-necroptotic effect, L929AsFas cells, FasL + zVAD, FACS of propidium iodide-stained nuclei; type: cell-based
# Protocol: (§1) L929 cells, L929AsFas cells, Jurkat FADD-deficient cells (Jurkat FADD^−/−), U937 cells are pretreated for 1 h with increased concentrations of Sib (0, 5, 10, 20 μM) and then treated respectively with TNF-α (10 ng/ml)+zVAD (20 μM), FasL (200 ng/ml)+zVAD (20 μM), TNF-α (10 ng/ml), TRAIL (200 ng/ml)+zVAD (30 μM) or TRAIL (200 ng/ml)+zVAD (30 μM)+CHX (1 μg/ml). % of cell death is determined after 24 h and calculated by a FACS analysis of Propidium Iodide-stained nuclei. In each case, the EC50 is determined as well as the % of rescue from cell death.
# U937 cells = assay: Anti-necroptotic effect, U937 cells, TRAIL + zVAD, FACS of propidium iodide-stained nuclei; type: cell-based
# Protocol: as §1
# [2] = tested on: Jurkat Fadd deficient cells; assay: Delayed treatment of Sib on TNF-induced necroptotic cell-death; type: cell-based, human; conditions: 10 μM added 1 h, 2 h, 3 h or 4 h after TNF-α (10 ng/ml); cell death after 24 h
# Protocol: Jurkat Fadd deficient cells are treated with TNF-α (10 ng/ml) then treated with Sib (10 μM) at 1 h, 2 h, 3 h or 4 h after adding TNF-α. % of cell death is determined after 24 h and calculated by a FACS analysis of Propidium Iodide-stained nuclei. Quantitative analysis of three independent experiments with means±SD.
# [3] = tested on: cytochrome P450 CYP1A enzymes in HepG2 cells; assay: Ethoxyresorufin O-deethylase (EROD) activity in HepG2 cells; type: in vitro ADME, human; conditions: 10 μM, 24 hours
# Protocol: EROD activity corresponds to the O-deethylation of ethoxyresorufin and is mainly supported by cytochrome P450 CYP1A enzymes in HepG2 cells. Induction of CYP1A is mediated through the binding of xenobiotics to a cytosolic aryl hydrocarbon receptor AhR.
# Human liver cancer cell lines HepG2 were treated with 10 μM of Sib, Nec-1 or Nec-1s for 24 hours. After treatment, HepG2 cells were incubated in PBS containing 5 mM ethoxyresorufin and kinetic reading was performed at 37° C. with spectrofluorometer (SpectraMax Gemini SX) over a 15 min period.
# [4] = tested on: murine model of acute hepatitis (concanavalin A-induced hepatitis); assay: Concanavalin A-induced acute hepatitis in mice; type: in vivo, C57Bl/6 WT mice
# Protocol: We use a murine model of acute hepatitis (concanavalin A-induced hepatitis) that depends on necroptosis induction (Jouan-Lanhouet et al. Semin. Cell. Dev. Biol. 2014, 35, 2-13). Sib is diluted in 50% PBS/50% DMSO.
# C57Bl/6 WT mice were pre-treated or not with 3, 6 or 9 mg/kg Sib or 6.25 mg/kg Nec-1s injected by intraperitoneal route 1 hour before treatment or not with 12 mg/kg Con A for 10 h (intravenous route) (50% PBS/50% DMSO, n=5; 50% PBS/50% DMSO+Con A, n=5; 3 mg/kg Sib+Con A, n=5; 6 mg/kg Sib+Con A, n=5; 9 mg/kg Sib+Con A, n=5; 6.25 mg/kg Nec-1s+Con A, n=5).
smiles,measurement,setting,value
"Oc1ccc(-c2cc3cccnc3[nH]2)cc1 [compound 2, 4-(1H-pyrrolo[2,3-b]pyridin-2-yl)phenol]",EC50,"[1]; Homo sapiens, Jurkat, necroptosis induced by 10 ng/ml TNF-α, 24 hours, MTS viability",1.3 µM
same,inhibition of necroptosis induced by TNF-α (figure legend),"[1]; human T lymphocyte, Jurkat FADD deficient cell line",dose-dependent inhibition
same,EC50,"L929AsFas cells; 1 h pretreatment, cell death after 24 h",2.4 µM
same,% Rescue,"L929AsFas cells; rescue from cell death, 24 h",80%
same,EC50,"U937 cells; Homo sapiens, U-937, 1 h pretreatment, cell death after 24 h",4 µM
same,% Rescue,"U937 cells; rescue from cell death, 24 h",90%
same,effect on necroptotic cell-death with delayed treatment,[2],inhibits the necroptotic cell-death
same,induction of EROD activity,[3],do not induce EROD activity
same,AST and ALT levels and protection from Con A-induced hepatitis,[4]; Sib 9 mg/kg intraperitoneal 1 hour before 12 mg/kg Con A for 10 h,This protection is not observed
same,AST and ALT levels and protection from Con A-induced hepatitis,[4]; Sib 3 or 6 mg/kg intraperitoneal 1 hour before 12 mg/kg Con A for 10 h,has a tendency to decrease AST and ALT levels and to protect mice from Con A-induced hepatitis
same,"serum aminotransaminases (ALT, AST) levels induced by ConA (figure legend)",[4]; dose of 3 mg/kg,decreases these serum transaminase levels
